Reference: patent US8603502B2, “Compositions comprising jasmonic acid derivatives and use of these derivatives” (L'Oreal S.A., priority 2002, dated 2013)

How the values were obtained:
Assay type in all cases: cell-based
[1] = test system: isolated stratum corneum; assay: Keratolytic power, Test 2: counting corneocytes released from isolated stratum corneum, comparison with jasmonic acid; conditions: 1% by weight solution in PBS + 0.1% Triton X100, pH 7.4; 37° C., 24 hours
Protocol: (§1) The keratolytic power of a number of compounds of this disclosure was studied. This test comprises counting corneocytes released following incubation of patches of isolated stratum corneum in the presence of the test compounds.
(§2) Stratum corneum isolated by trypsin/heat from surgical plasties was used. A number of different stratum corneum samples were used. Discs of 4 mm in diameter were punched out and placed at the bottom of a 96-well plate.
A 1% by weight solution of the compound of Example 1, or jasmonic acid (comparison), was prepared in a PBS buffer supplemented with 0.1% of Triton X100. The pH of the solution was adjusted to 7.4.
(§3) 50 microliters of test solution or of control solution (PBS buffer supplemented with 0.1% of Triton X100) were added to each well. Incubation was carried out at 37° C. with stirring for 24 hours.
(§4) 10 microliters of solution were then withdrawn and were placed in a Malassez cell. The liberated corneocytes were counted under the microscope.
The results obtained are as follows, expressed as the number of liberated corneocytes per microliter, averaged over three tests. Corneocyte fragments are not counted.

[2] = test system: isolated stratum corneum; assay: Keratolytic power, Test 3: counting corneocytes released from isolated stratum corneum, PEG 8/ethanol vehicle; conditions: 2% by weight solution in water with 50% PEG 8 and 30% ethanol, 37° C., 24 hours; for number of liberated corneocytes per microliter, Sample 1: Sample 1, average over three tests; for number of liberated corneocytes per microliter, Sample 2: Sample 2, average over three tests; for number of liberated corneocytes per microliter, Average: average of Samples 1-2
Protocol: as §1, §2
A 2% by weight solution of the compound of Example 3, or 2-hydroxy-4-octanoylbenzoic acid (comparison), was prepared in an aqueous solution containing 50% by weight of polyethylene glycol (PEG 8) and 30% by weight of ethanol.
50 microliters of test solution or of control solution were added to each well. Incubation was carried out at 37° C. with stirring for 24 hours.
10 microliters of solution were then withdrawn and were placed in a Mallassez cell. The liberated corneocytes were counted under the microscope.
The results obtained are as follows, expressed as the number of liberated corneocytes per microliter, averaged over the three tests. Corneocyte fragments were not counted.

[3] = test system: isolated stratum corneum; assay: Keratolytic power, Test 1: counting corneocytes released after incubating patches of isolated stratum corneum with the test compound; conditions: 1% by weight solution in PBS + 0.1% Triton X100, pH 7.4, 37° C., 24 hours
Protocol: as §1, §2
A 1% by weight solution of the compound of Example 3 was prepared in a PBS buffer supplemented with 0.1% of Triton X100. The pH of the solution was adjusted to 7.4.
as §3, §4
The results obtained are as follows, expressed as the number of liberated corneocytes per microliter, averaged over three tests. Corneocyte fragments were not counted.

| Structure (SMILES) | number of liberated corneocytes per microliter, Average (3 tests per sample, 3 different samples) [1] [per microliter] | number of liberated corneocytes per microliter, Sample 1 [2] [per microliter] | number of liberated corneocytes per microliter, Sample 2 [2] [per microliter] | number of liberated corneocytes per microliter, Average [2] [per microliter] | number of liberated corneocytes per microliter, Average ([3]; average of Samples 1-3) [per microliter] | number of liberated corneocytes per microliter, Sample 1 ([3]; stratum corneum Sample 1, average over three tests) [per microliter] | number of liberated corneocytes per microliter, Sample 2 ([3]; stratum corneum Sample 2, average over three tests) [per microliter] | number of liberated corneocytes per microliter, Sample 3 ([3]; stratum corneum Sample 3, average over three tests) [per microliter] |
| --- | --- | --- | --- | --- | --- | --- | --- | --- |
| CC/C=C\C[C@H]1C(O)CC[C@@H]1CC(=O)O (mixture of isomers) [Example 1, (+/−)(1R,2R)-3-hydroxy-2-[(2Z)-2-pentenyl]cyclopentaneacetic acid] | 26 ± 7 |  |  |  |  |  |  |  |
| CC/C=C\C[C@H]1C(=O)CC[C@@H]1CC(=O)O (racemic) [Jasmonic acid, (+/−)(1R,2R)-3-oxo-2-[(2Z)-2-pentyl]cyclopentaneacetic acid] | 15 ± 5 |  |  |  |  |  |  |  |
| CCCCCCCC(=O)c1ccc(C(=O)O)c(O)c1 [2-Hydroxy-4-octanoylbenzoic acid, 2-hydroxy-4-octanoylbenzoic acid, reference compound] |  | 3 ± 3 | 4 ± 3 | 3.5 ± 3 |  |  |  |  |
| CCCCC[C@H]1C(O)CC[C@@H]1CC(=O)O (mixture of isomers) [Example 3, (+/−)(1R,2R)-3-hydroxy-2-pentylcyclopentaneacetic acid] |  | 2 ± 3 | 3 ± 1 | 2.5 ± 2 | 61 ± 33 | 28 ± 9 | 56 ± 7 | 101 ± 11 |
